Measured values from patent US6737428B2, “BIS hydrochloride monohydrate salt of RSV fusion inhibitor” (Bristol-Myers Squibb Company, priority 2001, dated 2004).
Read-outs that look alike come from different tables or passages of the source.

Experiments:
[1] = system: respiratory syncytial virus Long strain; experiment: Antiviral activity against respiratory syncytial virus in HEp-2 cells (MTT cell protection); assay type: cell-based; conditions: for EC50: human respiratory syncytial virus, read-out: EC50 (concentration that produces 50% cell protection)
Description: The antiviral activity of these compounds against respiratory syncytial virus was determined in HEp-2 (ATCC CCL 23) cells that were seeded in 96 well microtiter plates at 1.5×10^4 cells/100 μL/well in DMEM (Dulbecco's Modified Eagle's Medium) supplemented with penicillin, streptomycin, glutamine, and 10% fetal bovine serum. The cells were incubated overnight at 37° C., the culture medium was removed, and cells were infected (100 μL volume in medium containing 2% fetal bovine serum) with respiratory syncytial virus Long strain at 5000 plaque forming units/mL. The compounds, 100 μL at appropriate dilution, were added to the cells 1 hour post infection. After incubation for 4 days at 37° C., the plates were stained with MTT solution (3-[4,5-dimethlythiazol-2-yl]-2,5-diphenyltetrazolium bromide) and incubated for 4 hours at 37° C. The media was aspirated from the cells and 100 μL/well of acidified isopropanol (per liter: 900 mL isopropanol, 100 mL Triton X100, and 4 mL conc. HCl) was added. Plates were incubated for 15 minutes at room temperature with shaking, and an optical density (OD 540) reading at 540 nanometer (nm) was obtained. The optical density reading is proportional to the number of viable cells. The increase in the number of viable cells reflects the protective, antiviral activity of the compound. Assays comparing MTT staining in uninfected cells containing compound with uninfected cells in the absence of compound provide a measure of cellular toxicity.
The antiviral activity of compounds, designated as EC50, is presented as a concentration that produces 50% cell protection in the assay. […]

[2] = acid used as salt former; cited from earlier work

Compound `O=c1n(Cc2nc3ccccc3n2CCCCO)c2cnccc2n1C1CC1` [compound II] has an EC50 ([1]; HEp-2, 96 h) of 0.06 µM.

In the case of `O=C(O)/C=C/C(=O)O` [fumaric acid], the “first pKa” value [2] is listed as ~3.

For `O=C(O)/C=C\C(=O)O` [maleic acid], the “first pKa” value [2] is listed as ~2.

`NC(=O)c1ncn([C@@H]2O[C@H](CO)[C@@H](O)[C@H]2O)n1` [Ribavirin] showed a cell protection ([1]; at 2.5 μg/mL (corresponding to 10.2 μM)) of 100% and an EC50 ([1]; 96 h, HEp-2 cells, RSV Long strain, 4 days, MTT) of 3 µM.
